The values below come from patent US7759366B2 (Sanofi-Aventis, priority 2006, dated 2010).

Experiment [1] has as its target hCB2R (Homo sapiens, UniProt P34972). As to the kind of experiment: In vitro functional assay (FLIPR, intracellular Ca2+) with recombinant HEK293 cells, CB2.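 Note: intracellular Ca2+ was tracked with the fluorescent dye Fluo-4 loaded into the cells before test substance addition.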
Method: Function-testing assays were performed by means of the FLIPR technique (“Fluorometric Imaging Plate Reader”, Molecular Devices Corp.).
To this end, ligand-induced changes in the intracellular concentration of Ca^2+ in recombinant HEK293 cells, which expressed both a cannabinoid receptor (CB1 or CB2) and G-protein Galpha16, were determined. For the studies, cells were sown into 96-well microtiter plates (60 000 cells/well) and left to grow overnight. The medium was removed and the cells were incubated in buffer which contained the fluorescent dye Fluo-4. After this loading with dye, the cells were washed, test substance was added dissolved in buffer, the mixture was incubated for 20 minutes, a known cannabinoid receptor agonist as a reference agonist was added in buffer and, finally, the changes in the intracellular Ca^2+ concentration were measured in the FLIPR unit.
Experiment [2] addresses T1, hCB1R (Homo sapiens, UniProt P21554). Put plainly: In vitro functional assay (FLIPR, intracellular Ca2+) with recombinant HEK293 cells, CB1. In kind it is cell-based. Details: expressed in transfected cells; host or cells: HEK293. The source says:
In Vitro Functional Assays with Recombinant Cells:

The target of experiment [3] is T1, hCB1R. Put plainly: Binding to the CB1 receptor ([3H]-SR141716A displacement). The procedure, abridged: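 [3H]-SR141716A displacement at hCB1R; test compounds at final 10 μM to 0.005 μM in assay buffer with 1% DMSO, duplicate determinations. Low control 1 μM AM 251, high control binding without compound; IC50 from curve fit, converted to Ki via Cheng-Prusoff using Kd.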

Setting [4] is: read-out: hCB2R: FLIPR, IC50, recombinant HEK293 cells expressing CB2 and Galpha16, 20 min preincubation, then reference agonist, Ca2+ change.
Where [5] appears, read: CHO-K1/cannabinoid CB1 protein 2 μg/well, [3H]-SR141716A 0.5 nM, Ki from IC50 by Cheng-Prusoff, average of double determination, read-out: hCB1R, binding Ki.

Structures can show the parent of a compound that is named as a salt. Where two headings read alike, the source gives them in different places.

hCB2R, sequence (P34972 whole entry): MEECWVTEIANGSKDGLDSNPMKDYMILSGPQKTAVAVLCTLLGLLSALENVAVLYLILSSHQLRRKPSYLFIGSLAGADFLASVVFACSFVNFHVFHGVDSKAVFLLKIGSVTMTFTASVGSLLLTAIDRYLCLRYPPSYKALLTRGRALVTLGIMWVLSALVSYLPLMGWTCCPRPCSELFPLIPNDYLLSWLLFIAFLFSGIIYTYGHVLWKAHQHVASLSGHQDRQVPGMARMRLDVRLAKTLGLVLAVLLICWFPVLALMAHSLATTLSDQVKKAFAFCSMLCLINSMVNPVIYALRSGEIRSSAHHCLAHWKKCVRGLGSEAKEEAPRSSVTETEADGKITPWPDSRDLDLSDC
T1 sequence (P21554 whole entry): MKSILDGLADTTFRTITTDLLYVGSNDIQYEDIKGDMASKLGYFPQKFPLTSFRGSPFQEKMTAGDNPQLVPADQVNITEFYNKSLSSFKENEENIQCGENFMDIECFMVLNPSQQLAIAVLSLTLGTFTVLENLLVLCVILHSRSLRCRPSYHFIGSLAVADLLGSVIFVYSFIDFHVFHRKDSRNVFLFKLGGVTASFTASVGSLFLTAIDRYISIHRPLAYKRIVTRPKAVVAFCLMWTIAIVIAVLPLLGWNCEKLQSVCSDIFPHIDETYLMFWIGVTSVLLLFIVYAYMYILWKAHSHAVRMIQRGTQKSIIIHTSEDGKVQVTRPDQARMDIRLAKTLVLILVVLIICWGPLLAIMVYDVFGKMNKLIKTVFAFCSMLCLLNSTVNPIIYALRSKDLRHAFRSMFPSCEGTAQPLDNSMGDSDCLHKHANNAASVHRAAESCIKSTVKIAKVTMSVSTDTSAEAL

Take `CC1(C)C(=O)N(c2ccc(C#N)c(C(F)(F)F)c2)C(=O)N1Cc1ccccc1Nc1ccccc1` [Example 1, 4-[4,4-Dimethyl-2,5-dioxo-3-(2-phenylaminobenzyl)imidazolidin-1-yl]-2-trifluoromethylbenzonitrile]: the IC50 was more than 10000 nM in experiment [1] (setting [4]) and 10 nM in experiment [2]. The Ki in experiment [3] is 13 nM.
The corresponding values for `CC1(C)C(=O)N(c2ccc(C#N)c(C(F)(F)F)c2)C(=O)N1Cc1ccccc1Nc1ccc(C(F)(F)F)cc1` [Example 5, 4-{3-[2-(4-trifluoromethylphenylamino)benzyl]-4,4-dimethyl-2,5-dioxoimidazolidin-1-yl}-2-trifluoromethylbenzonitrile] are more than 10000 nM, 44 nM and 7 nM.
In the same order, the values of `CC1(C)C(=O)N(c2ccc(C#N)c(C(F)(F)F)c2)C(=O)N1Cc1ccccc1Nc1ccc(F)cc1F` [Example 11, 4-{3-[2-(2,4-difluorophenylamino)benzyl]-4,4-dimethyl-2,5-dioxoimidazolidin-1-yl}-2-trifluoromethylbenzonitrile] are more than 10000 nM, 0.7 nM and 1 nM.
In the same order, the values of `CC1(C)C(=O)N(c2ccc(C#N)c(C(F)(F)F)c2)C(=O)N1Cc1cccc(Cl)c1Nc1ccc(F)cc1F` [Example 42, 4-{3-[5-chloro-6-(2,4-difluorophenylamino)benzyl]-4,4-dimethyl-2,5-dioxoimidazolidin-1-yl}-2-trifluoromethylbenzonitrile] are more than 10000 nM, 12 nM and 1 nM.
For `CC1(C)C(=O)N(c2ccc(C#N)c(C(F)(F)F)c2)C(=O)N1Cc1ccc(C(F)(F)F)cc1Nc1ccc(F)cc1F` [Example 56, 4-{3-[2-(2,4-difluorophenylamino)-4-trifluoromethylbenzyl]-4,4-dimethyl-2,5-dioxoimidazolidin-1-yl}-2-trifluoromethylbenzonitrile], the IC50 in experiment [1] (setting [4]) is more than 10000 nM; in experiment [2] it was 8 nM. In experiment [3], this compound returned a Ki of 3 nM.
Take `COC(=O)c1ccc(Nc2ccccc2CN2C(=O)N(c3ccc(C#N)c(C(F)(F)F)c3)C(=O)C2(C)C)cc1` [Example 60, methyl 4-{2-[3-(4-cyano-3-trifluoromethylphenyl)-5,5-dimethyl-2,4-dioxoimidazolidin-1-ylmethyl]phenylamino}benzoate]: the IC50 in experiment [1] (setting [4]) was more than 10000 nM; in experiment [2], 2 nM. The Ki in experiment [3] was determined as 1 nM.
Turning to `CC(C)(C)c1cc(N2C(=O)N(Cc3ccccc3Nc3ccc(F)cc3F)C(C)(C)C2=O)ccc1C#N` [Example 64, 2-tert-butyl-4-{3-[2-(2,4-difluorophenylamino)benzyl]-4,4-dimethyl-2,5-dioxoimidazolidin-1-yl}benzonitrile], the IC50 in experiment [1] (setting [4]) is more than 10000 nM; in experiment [2] it was 16 nM. In experiment [3], this compound displayed a Ki of 5 nM.
`CC1(C)C(=O)N(c2ccnc(C(F)(F)F)c2)C(=O)N1Cc1ccccc1Nc1ccc(F)cc1F` [Example 66, 1-[2-(2,4-difluorophenylamino)benzyl]-5,5-dimethyl-3-(2-trifluoromethylpyridin-4-yl)imidazolidine-2,4-dione]: the IC50 in experiment [1] was more than 10000 nM; in experiment [2] (recombinant HEK293 cells expressing CB1 and Galpha16, 20 min preincubation, then reference agonist, Ca2+ change, read-out: hCB1R: FLIPR, IC50), 25 nM. Further, in experiment [3] (setting [5]), the Ki came out at 7 nM.
In the case of `COc1ccc(Nc2ccccc2CN2C(=O)N(c3ccc(C#N)c(C(F)(F)F)c3)C(=O)C2(C)C)cc1` [Example 67, 4-{3-[2-(4-methoxyphenylamino)benzyl]-4,4-dimethyl-2,5-dioxoimidazolidin-1-yl}-2-trifluoromethylbenzonitrile], the IC50 was more than 10000 nM in experiment [1] (setting [4]) and 1 nM in experiment [2]. This compound also came in with a Ki in experiment [3] of 1 nM.
Turning to `COC(=O)c1ccc(Nc2ccccc2CN2C(=O)N(c3ccc(C#N)c(C(F)(F)F)c3)C(=O)C2(C)C)cc1OC` [Example 140, methyl 4-{2-[3-(4-cyano-3-trifluoromethylphenyl)-5,5-dimethyl-2,4-dioxoimidazolidin-1-ylmethyl]phenylamino}-2-methoxybenzoate], the IC50 in experiment [1] (setting [4]) is more than 10000 nM. The Ki in experiment [3] turned out to be 26 nM.
With `CC1OC(=O)c2cc(Nc3ccccc3CN3C(=O)N(c4ccc(C#N)c(C(F)(F)F)c4)C(=O)C3(C)C)ccc2O1` (stereo not drawn) [Example 142, 4-{4,4-dimethyl-3-[2-(2-methyl-4-oxo-4H-1,3-benzodioxin-6-ylamino)benzyl]-2,5-dioxoimidazolidin-1-yl}-2-trifluoromethylbenzonitrile], in experiment [1] (setting [4]), the IC50 was more than 10000 nM. Also, the Ki in experiment [3] amounted to 3 nM.
For `CC1(C)C(=O)N(c2ccc(F)c(C(F)(F)F)c2)C(=O)N1Cc1ccccc1Nc1ccc(C(=N)N)cc1` [Example 144, 4-{2-[3-(4-Fluoro-3-trifluoromethylphenyl)-5,5-dimethyl-2,4-dioxoimidazolidin-1-ylmethyl]phenylamino}benzamidine hydrochloride], the IC50 in experiment [1] was more than 10000 nM. Moreover, the Ki in experiment [3] (setting [5]) stood at 19 nM.
